Assay results from US20090233895A1, “METHOD OF TREATMENT OF BACTERIAL INFECTIONS” (Ethypharm, priority 2006, published 2009).

Columns and labels:
[1] = test system: E. coli GR2; assay: modified Hollow T-Tube in vitro model simulating antibacterial treatment with oral cefaclor in humans over 24 hours; format: cell-based, Escherichia coli; details: for Observed Δt > MIC / Δt > MIC: percentage of the dosage interval
Procedure: The bacteria stem from one strain of Escherichia coli, species that is considered to be non-constantly sensitive. The strain was obtained from M.-H. Nicolas (Hôpital Ambroise Paré, Paris, France) under the code E. coli GR2 with MIC of […]. The usual breakpoints with cefaclor for E. coli are ≦2 mg/l for sensitive strains and >8 mg/l for resistant strains, according to CA-SFM (Comité de l'Antibiogramme de la Société Française de Microbiologie).
The culture media is a Müller-Hinton Broth (MHB) obtained from Pasteur diagnostic (reference 69444). The starting inoculum of E. coli in the culture media is 10^7±5% CFU/ml. The E. coli concentration is measured by nephelometry (Densimat, ref. 99535 ver. A, Biomérieux, France) and standard dilution method.
(§1) The counting of E. coli present in the culture medium was measured in vitro in a model simulating the antibacterial treatment with oral beta-lactamine in humans over 24 hours.
(§2) The model simulating the antibacterial treatment used in the examples is a modified “Hollow T-Tube”-model, originally described by Cappellety et al. (Pharmacodynamics of ceftazidime administered as continuous infusion or intermittent bolus alone or in combination with single daily-dose amikacine against Pseudomonas aeruginosa in an in vitro infection model, A.A.C., 1995, 33: 1797-1801) and modified by the inventors (Louchahi et al. A procedure to mimic human impaired kinetic profiles of antibiotics with the hollow glass T-tube in vitro pharmacodynamic model, Abstract no 2116, p. 234, 39th ICAAC, Sep. 26-29, 1999, San Francisco).
In all experiments the period during which, after the addition of cefaclor, the concentration of cefaclor was above the MIC was measured (Δt>MIC). The result is expressed as percentage of the dosage interval.
The variation of the bacterial count was regularly registered during 24 hours. The result is expressed as ΔUFC/ml. For every experiment, the negative sign is highlighting the decreasing count with time since it corresponds to the difference between the initial inoculum at T0 and final bacterial count at T 24 h.

[2] = cefaclor concentration profile (t1/2, cmax) observed in the modified Hollow T-Tube in vitro model
Procedure: as §1, §2
Three different elimination half-lives were simulated: • 1. t1/2=45-50 min, which corresponds to a conventional immediate release form of cefaclor, • 2. t1/2=55-60 min, which corresponds to a conventional sustained release form of cefaclor, • 3. t1/2=90-100 min, which corresponds to an extended release form of cefaclor according to the present invention.

[3] = E1.1: expected t1/2 45-50 min, 500 mg, interval 8 h
[4] = E1.2: expected t1/2 55-60 min, 750 mg, interval 12 h
[5] = E1.3: expected t1/2 90-100 min, 500 mg, interval 8 h
[6] = E1.4: expected t1/2 90-100 min, 750 mg, interval 12 h
[7] = E1.5: expected t1/2 90-100 min, 750 mg, interval 8 h
[8] = E2.1: simulated poor absorber, 500 mg, interval 8 h
[9] = E2.2: simulated standard absorber, 500 mg, interval 8 h
[10] = E2.3: simulated good absorber, 500 mg, interval 8 h

## N[C@@H](C(=O)N[C@@H]1C(=O)N2C(C(=O)O)=C(Cl)CS[C@H]12)c1ccccc1 [cefaclor, cefaclor monohydrate]
[1]; [3]
  Δ UFC/ml by 24 h: −1.5 log
  Observed Δt > MIC: 50%
[1]; [4]
  Δ UFC/ml by 24 h: −1.5 log
  Observed Δt > MIC: 30-35%
[1]; [5]
  Δ UFC/ml by 24 h: −4 log
  Observed Δt > MIC: 75%
[1]; [6]
  Δ UFC/ml by 24 h: −1.5 log
  Observed Δt > MIC: 58%
[1]; [7]
  Δ UFC/ml by 24 h: >−5 log
  Observed Δt > MIC: 87%
[1]; [8]
  Δ UFC/ml by 24 h: −3 log
  Δt > MIC: 50%
[1]; [9]
  Δ UFC/ml by 24 h: −4 log
  Δt > MIC: 75%
[1]; [10]
  Δ UFC/ml by 24 h: −5 log
  Δt > MIC: 87%
[2]; E1.1: expected t1/2 45-50 min, 500 mg cefaclor, dosage interval 8 h
  Observed t1/2: 0.767 h
[2]; E1.2: expected t1/2 55-60 min, 750 mg cefaclor, dosage interval 12 h
  Observed t1/2: 0.967 h
[2]; E1.3: expected t1/2 90-100 min, 500 mg cefaclor, dosage interval 8 h
  Observed t1/2: 1.67 h
[2]; E1.4: expected t1/2 90-100 min, 750 mg cefaclor, dosage interval 12 h
  Observed t1/2: 1.68 h
[2]; E1.5: expected t1/2 90-100 min, 750 mg cefaclor, dosage interval 8 h
  Observed t1/2: 1.53 h
[2]; E2.1: simulated poor absorber, expected t1/2 90-100 min, 500 mg, interval 8 h
  Observed t1/2: 1.6 h
[2]; E2.2: simulated standard absorber, expected t1/2 90-100 min, 500 mg, interval 8 h
  Observed t1/2: 1.67 h
[2]; E2.3: simulated good absorber, expected t1/2 90-100 min, 500 mg, interval 8 h
  Observed t1/2: 1.53 h
